Measured values published in patent US20250066323A1, “INHIBITORS OF HUMAN RESPIRATORY SYNCYTIAL VIRUS AND METAPNEUMOVIRUS” (priority 2023, published 2025).

What was measured:
[1] = system: RSV-A2-GFP; test: RSV-A2-GFP viral replication assay; type: cell-based, Human Respiratory Syncytial Virus; settings: read-out: RSV EC50; Calu-1 cells, RSV-A2-GFP MOI=1.2, 96 hrs, GFP-expressing cells counted
Outline: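 Calu-1 cells in DMEM/2% FBS infected with RSV-A2 expressing GFP between P and M genes (24,000 pfu/ml, MOI=1.2), 10-point 3-fold dilutions (typical final 403 nM-0.02 nM or 40.3 nM-0.002 nM). After 96 h at 37°C, GFP-positive cells imaged; same-well CellTiter-Glo for cytotoxicity. IC50/CC50 by 4-parameter logistic fit.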

[2] = system: hMPV-GFP; test: hMPV-GFP viral replication assay; type: cell-based, human metapneumovirus; settings: read-out: hMPV EC50; VERO cells, hMPV-GFP MOI=1.25, 48 hrs, GFP-expressing cells counted
Protocol: GFP expressing rgHMPV #3 p3 was generated in Dr. Buchholz's lab (Biacchesi S. et al., J Virol. 2007 June; 81(11): 6057-6067.) and propagated in VERO cells (kidney tissue derived from a normal, adult African green monkey. ATCC Cat #CCL-81) with infection Multiplicity of Infection (MOI) of 0.1. Virus was harvested 4 days after infection by collecting all culture material and freeze-thaw the viral culture in liquid nitrogen twice. To generating virus working stocks, thaw frozen samples in 37° C. water bath then centrifuge at 218 g for 15 min at 4° C. Add 1/10 of 10×SPG (Biological Industries 06-3061-01-5A), mix, aliquot supernatant, and quick-freeze in liquid nitrogen then transfer to −80° C. freezer for storage. Virus titer was determined by performing titration test in 96-well plates and calculate approximate virus titer using GFP event/well data.
Compound plates were prepared by dispensing compounds dissolved in DMSO into wells of 384 well coming 3985 polystyrene flat clear bottom optical imaging microplates (202.5 nL/well) using an ECHO acoustic dispenser. Each compound was tested in a 10-point serial 3-fold dilution (typical final concentrations: 40,300 nM-2 nM). […] Continuous culture of VERO cells were maintained in complete culture media (OptiMEM supplemented with 2 mM GlutaMAX™ and 100 U/ml Penicillin-Streptomycin). To set up the assay, trypsinize VERO cells with 0.25% Trypsin-EDTA until cells dislodge, then re-suspend cells with 1 mL FBS. Spin down cells at 300 g for 5 min and wash cells twice in culture media, then count cells using default parameters on ViCell. Cells were then diluted to 100,000 cells/ml (5,000 cells/50 μl) in complete culture media+TrypLE Select (80 μl/ml). Add hMPV-GFP virus to cells at 125,000 pfu/ml (MOI=1.25). Mix by gentle inversion. 10 μl/well of 100% DMSO was dispensed to CellTiter-Glo (CTG) assay Max_E controls wells. Dispense cells at 50 μl/well using Bravo and 50 μl filtered tips into compound plates. Cover plates with MicroClime lids loaded with 7.5 ml of assay media to minimize evaporation. Lightly shake plate for 10 minutes at room temperature then incubate at 37 degrees C. and 5% CO2 for 48 hrs. Following incubation, distinct, GFP-expressing cells are counted using an Acumen imaging system with appropriate settings. A same-well CTG assay is performed by adding 10 μl/well reconstituted CellTiter-Glo reagent (Promega G7573) and reading plates on PerkinElmer Envision according to manufacturer's instructions. Raw data were loaded and analyzed in ActivityBase. Antiviral IC50 and cytotoxicity CC50 values were determined using a 4 parameter logistic fit based on the Levenberg-Marquardt algorithm. Model: 205-4 Parameter Logistic.

`Cn1nc(-c2cscn2)cc1C(=O)NCC(C)(O)c1cc2c(c(-c3ccc(F)cc3)n1)OCC2(C)N` (single isomer, unassigned) [Example 28-D] gave an EC50 [1] of 10 to 100 nM and an EC50 [2] greater than 100 nM.
